Several values for one entry are separate records, joined by “and”; a condition that tells them apart may be missing. Equal entries are not always repeated. Where two headings read alike, the source gives them in different places. Where a SMILES comes first, the peptide text is derived from it. Bridges are numbered along the chain shown (N, C = ends). [ ]: non-standard residue; d: D form. Agp = N=C(N)NC[C@H](N)C(=O)O; Nle = CCCC[C@H](N)C(=O)O
How the values were obtained:
human Kv1.1 = molecular target: T1, human Kv1.1 (Homo sapiens, UniProt Q09470); assay: cell-based; conditions: for Selectivity ratio Kv1.1/Kv1.3: ratio of patch clamp IC50 values
T1 construct: expressed in transfected cells; host or cells: CHO

human Kv1.2 = molecular target: T2, human Kv1.2 (Homo sapiens, UniProt P16389); assay: cell-based; conditions: for Selectivity ratio Kv1.2/Kv1.3: ratio of patch clamp IC50 values
T2 construct: expressed in transfected cells; host or cells: CHO

human Kv1.3 = molecular target: T3, human Kv1.3 (Homo sapiens, UniProt P22001); assay: cell-based; conditions: CHO cells, QPatch whole-cell; read-out: Potency IC50 Kv1.3
T3 construct: expressed in transfected cells; host or cells: CHO

human Kv1.6 = molecular target: T4, human Kv1.6 (Homo sapiens, UniProt P17658); assay: cell-based; conditions: for Selectivity ratio Kv1.6/Kv1.3: ratio of patch clamp IC50 values
T4 construct: expressed in transfected cells; host or cells: CHO

Rat whole blood = Rat whole blood (Rattus norvegicus, UniProt P15384); assay type: cell-based; conditions: IL-17A release, thapsigargin, 24 Hr, at least 2 replicates
[1] = system: KLH ear inflammation model in rats; assay type: in vivo, rat; conditions: +/− SD
[2] = system: Human peripheral blood mononuclear cells (PBMCs); assay type: cell-based; conditions: geometric mean, at least 6 replicates, Example 5b; read-out: anti-CD3 PBMC/IL-2 IC50
Method: Human peripheral blood mononuclear cells (PBMCs) were used to assess the effects of Kv1.3 blocker reference compounds on T-cell activation as determined by IL-2 release after stimulation with anti-CD3.
Human PBMCs were obtained from Precision for Medicine (Frederick, MD). Cells from 5 donors were used. Plate-bound anti-CD3 was used to stimulate bulk T cells in the PBMC preparations. Briefly, 96-well plates were coated with anti-CD3 antibody for app. 16 hours at 5° C., using 50 μl of a 1 μg/ml anti-CD3 solution diluted in PBS. Thereafter the plates were washed twice.
Kv1.3 blockers were subsequently diluted in medium (RPMI 1640 with Glutamax-I containing, 10% v/v Fetal Bovine Serum, 1% v/v penicillin-streptomycin Solution) and added in a volume of 50 μl. The compounds indicated in Table 8b were used at concentrations ranging from 0.3 pM to 1000 nM (half log dilutions, starting concentrations varying).
Finally, 50.000 PBMCs in the same medium were added to each well in a volume of 50 μl, giving a final volume of 100 μl per well. The plates were incubated for 20-24 hours in a 37° C./5% CO2 incubator. After centrifugation of the plates, 25 μl supernatant was transferred to IL-2 detection plates (MSD Human IL-2 Tissue Culture Kit, cat #K151AHB-2) and IL-2 was measures as described by the manufacturer (Meso Scale Discovery, Rockville, Maryland, USA).
All values derive from at least 6 replicates.

[3] = molecular target: T5, human Kv1.3 voltage-gated K+ channel (Homo sapiens, UniProt P22001); assay: Kv1.3 blocker activity in FLIPR thallium assay; assay type: cell-based
T5 construct: host or cells: CHO-DUKX
Summary of the method: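 CHO-DUKX cells stably expressing Kv1.3 were pre-incubated with compound for 30 min at 37° C in buffer with 0.02% w/v casein. Depolarization used final stimulus buffer with 5 mM K2SO4 and 1 mM Tl2SO4. Thallium-flux fluorescence was read at maximum response at 50 s, 37° C, and IC50 derived.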

[4] = 50 nmol/kg SC 24 hrs prior to KLH ear challenge
[5] = 70 nmol/kg SC 24 hrs prior to KLH ear challenge

T3 sequence (P22001 whole entry): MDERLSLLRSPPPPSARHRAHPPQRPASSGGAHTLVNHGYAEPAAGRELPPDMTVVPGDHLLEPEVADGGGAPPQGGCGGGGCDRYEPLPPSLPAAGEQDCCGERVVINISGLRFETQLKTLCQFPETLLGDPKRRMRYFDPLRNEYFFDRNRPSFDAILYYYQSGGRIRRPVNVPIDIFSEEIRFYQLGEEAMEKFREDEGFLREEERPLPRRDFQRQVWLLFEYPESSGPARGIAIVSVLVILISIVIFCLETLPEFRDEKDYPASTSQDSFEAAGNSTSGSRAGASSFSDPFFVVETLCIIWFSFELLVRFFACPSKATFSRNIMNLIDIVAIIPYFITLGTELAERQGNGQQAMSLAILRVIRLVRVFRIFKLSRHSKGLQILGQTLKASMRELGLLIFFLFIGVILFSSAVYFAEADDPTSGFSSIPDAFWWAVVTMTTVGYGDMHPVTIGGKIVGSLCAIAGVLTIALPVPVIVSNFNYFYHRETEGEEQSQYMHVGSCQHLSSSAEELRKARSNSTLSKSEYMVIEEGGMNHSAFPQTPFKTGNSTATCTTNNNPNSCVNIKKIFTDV
Chain of Rat whole blood (P15384 whole entry): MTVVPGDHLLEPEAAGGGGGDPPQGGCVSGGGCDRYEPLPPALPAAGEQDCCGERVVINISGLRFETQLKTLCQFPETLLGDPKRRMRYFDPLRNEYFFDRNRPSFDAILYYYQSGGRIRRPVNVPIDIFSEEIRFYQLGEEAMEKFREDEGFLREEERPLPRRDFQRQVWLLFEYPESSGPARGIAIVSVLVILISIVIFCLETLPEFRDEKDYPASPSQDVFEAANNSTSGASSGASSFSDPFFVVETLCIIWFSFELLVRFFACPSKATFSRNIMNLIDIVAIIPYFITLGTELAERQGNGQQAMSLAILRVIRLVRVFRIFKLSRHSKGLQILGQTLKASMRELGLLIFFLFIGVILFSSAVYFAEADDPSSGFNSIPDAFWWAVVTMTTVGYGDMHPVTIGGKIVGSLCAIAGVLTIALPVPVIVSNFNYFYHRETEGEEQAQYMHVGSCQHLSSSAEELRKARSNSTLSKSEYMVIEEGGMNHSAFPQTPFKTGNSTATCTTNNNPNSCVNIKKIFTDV
T2 sequence (P16389 whole entry): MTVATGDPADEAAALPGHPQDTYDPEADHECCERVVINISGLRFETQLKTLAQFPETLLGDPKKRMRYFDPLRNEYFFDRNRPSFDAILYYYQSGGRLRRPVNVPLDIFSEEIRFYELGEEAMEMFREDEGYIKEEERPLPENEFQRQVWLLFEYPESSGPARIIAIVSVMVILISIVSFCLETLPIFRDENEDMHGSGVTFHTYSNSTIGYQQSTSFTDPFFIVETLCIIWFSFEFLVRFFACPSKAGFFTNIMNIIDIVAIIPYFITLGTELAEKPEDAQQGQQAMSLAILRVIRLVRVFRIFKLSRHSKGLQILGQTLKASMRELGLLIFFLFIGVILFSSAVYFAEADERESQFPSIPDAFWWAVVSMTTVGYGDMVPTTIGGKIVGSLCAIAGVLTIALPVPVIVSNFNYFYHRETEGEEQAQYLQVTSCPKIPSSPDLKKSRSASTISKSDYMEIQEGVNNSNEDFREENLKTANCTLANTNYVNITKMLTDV
T4 sequence (P17658 whole entry): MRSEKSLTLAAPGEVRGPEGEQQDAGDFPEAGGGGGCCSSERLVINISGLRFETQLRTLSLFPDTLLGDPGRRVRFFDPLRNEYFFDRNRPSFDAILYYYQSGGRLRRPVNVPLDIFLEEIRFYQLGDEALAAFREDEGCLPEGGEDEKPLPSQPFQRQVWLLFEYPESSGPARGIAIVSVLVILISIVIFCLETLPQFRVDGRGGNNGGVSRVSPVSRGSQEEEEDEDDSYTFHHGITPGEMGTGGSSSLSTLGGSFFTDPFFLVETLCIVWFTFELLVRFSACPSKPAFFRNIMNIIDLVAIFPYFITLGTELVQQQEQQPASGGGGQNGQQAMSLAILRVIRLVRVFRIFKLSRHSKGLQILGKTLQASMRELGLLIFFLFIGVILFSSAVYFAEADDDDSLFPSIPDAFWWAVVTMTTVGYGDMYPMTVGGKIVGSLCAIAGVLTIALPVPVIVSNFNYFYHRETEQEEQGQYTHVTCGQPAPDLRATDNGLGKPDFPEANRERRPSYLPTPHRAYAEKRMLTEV
T1 sequence (Q09470 whole entry): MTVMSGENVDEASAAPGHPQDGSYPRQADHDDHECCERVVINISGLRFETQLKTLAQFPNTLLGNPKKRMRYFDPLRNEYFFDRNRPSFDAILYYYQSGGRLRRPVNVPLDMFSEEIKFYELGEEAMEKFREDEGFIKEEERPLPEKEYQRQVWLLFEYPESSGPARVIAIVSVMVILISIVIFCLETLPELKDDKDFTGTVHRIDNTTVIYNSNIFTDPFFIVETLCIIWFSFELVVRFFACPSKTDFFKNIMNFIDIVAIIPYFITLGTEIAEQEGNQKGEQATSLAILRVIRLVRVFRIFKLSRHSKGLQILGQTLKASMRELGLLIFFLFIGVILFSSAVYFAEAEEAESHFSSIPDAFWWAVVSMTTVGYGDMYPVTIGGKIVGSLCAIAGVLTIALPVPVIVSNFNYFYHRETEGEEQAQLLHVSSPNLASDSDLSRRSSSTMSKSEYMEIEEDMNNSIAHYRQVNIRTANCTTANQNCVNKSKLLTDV
T5 sequence (P22001 whole entry): as the sequence (P22001 whole entry) above

CC[C@H](C)[C@@H]1NC(=O)[C@H](C)NC(=O)[C@H](CCCCN)NC(=O)[C@H](CC(C)C)NC(=O)[C@@H]2CSSC[C@@H](C(=O)N[C@@H](Cc3ccc(O)cc3)C(=O)N3CCC[C@H]3C(=O)N[C@@H](CCCNC(=N)N)C(N)=O)NC(=O)[C@H](CCCCN)NC(=O)[C@@H]3CSSC[C@H](NC(=O)[C@H](CCC(=O)O)NC(=O)[C@H](C(C)C)NC(=O)[C@H](CO)NC(=O)[C@H](C)NC(=O)[C@H](CCCCN)NC(=O)[C@@H](NC(=O)[C@H](CCCNC(=N)N)NC(=O)[C@H](CCSC)NC(=O)[C@H](CC(=O)O)NC(=O)[C@H](CCSC)NC(=O)[C@@H](N)CC(N)=O)CSSC[C@H](NC(=O)[C@H](CCCCN)NC(=O)CNC(=O)[C@H](Cc4ccccc4)NC(=O)[C@H]([C@@H](C)CC)NC(=O)[C@H](CO)NC(=O)CNC1=O)C(=O)N[C@@H](CCSC)C(=O)N[C@@H](CC(N)=O)C(=O)N[C@@H](CCCCN)C(=O)N[C@@H](CCCCN)C(=O)N3)C(=O)N[C@@H](CCCCN)C(=O)N[C@@H](CCC(N)=O)C(=O)N[C@@H](CCCCN)C(=O)N2 [compound 29] (H-NMDMRCKASVECKQKCLKAIGSIFGKCMNKKCKCYPR-NH2; disulfide 6-27, 12-32, 16-34)
Selectivity ratio Kv1.1/Kv1.3 (human Kv1.1): >34200 | Selectivity ratio Kv1.2/Kv1.3 (human Kv1.2): 761 | IC50 (human Kv1.3): 0.09 nM | Selectivity ratio Kv1.6/Kv1.3 (human Kv1.6): 4144

CC[C@H](C)[C@@H]1NC(=O)[C@H](C)NC(=O)[C@H](CCCCN)NC(=O)[C@H](CC(C)C)NC(=O)[C@@H]2CSSC[C@@H](C(=O)N[C@@H](Cc3ccc(O)cc3)C(=O)N3CCC[C@H]3C(=O)N[C@@H](CCCNC(=N)N)C(=O)O)NC(=O)[C@H](CCCCN)NC(=O)[C@@H]3CSSC[C@H](NC(=O)[C@H](CCC(=O)O)NC(=O)[C@H](C(C)C)NC(=O)[C@H](CO)NC(=O)[C@H](C)NC(=O)[C@H](CO)NC(=O)[C@@H](NC(=O)[C@H](CCCNC(=N)N)NC(=O)[C@H](CCSC)NC(=O)[C@H](CC(=O)O)NC(=O)[C@H](CCSC)NC(=O)[C@@H](N)CC(N)=O)CSSC[C@H](NC(=O)[C@H](CCCCN)NC(=O)CNC(=O)[C@H](Cc4ccccc4)NC(=O)[C@H]([C@@H](C)CC)NC(=O)[C@H](CO)NC(=O)CNC1=O)C(=O)N[C@@H](CCSC)C(=O)N[C@@H](CC(N)=O)C(=O)N[C@@H](CCCCN)C(=O)N[C@@H](CCCCN)C(=O)N3)C(=O)N[C@@H](CCCCN)C(=O)N[C@@H](CCC(N)=O)C(=O)N[C@@H](CCCCN)C(=O)N2 [compound 17] (H-NMDMRCSASVECKQKCLKAIGSIFGKCMNKKCKCYPR-OH; disulfide 6-27, 12-32, 16-34)
IC50 (Rat whole blood): 1 nM | Selectivity ratio Kv1.1/Kv1.3 (human Kv1.1): >11300 | % inhibition of ear thickness (AUC of Δ ear thickness 0-48 hours) [1, 4]: 37.3 (+/−13.8) % | % inhibition of ear thickness (AUC of Δ ear thickness 0-48 hours) [1, 5]: 38.8 (+/−9.7) % and 25.0 (+/−12.5) % | Selectivity ratio Kv1.2/Kv1.3 (human Kv1.2): 1540 | Selectivity ratio Kv1.6/Kv1.3 (human Kv1.6): >11300 | IC50 [2]: 0.06 nM

CCCC[C@H](NC(=O)[C@@H]1CCCN1)C(=O)N[C@@H](CCC(=O)O)C(=O)N[C@@H](CCCC)C(=O)N[C@@H](CCCNC(=N)N)C(=O)N[C@H]1CSSC[C@@H]2NC(=O)[C@H](CCCCN)NC(=O)CNC(=O)[C@H](Cc3ccccc3)NC(=O)[C@H]([C@@H](C)CC)NC(=O)[C@H](CO)NC(=O)CNC(=O)[C@H]([C@@H](C)CC)NC(=O)[C@H](C)NC(=O)[C@H](C)NC(=O)[C@H](CC(C)C)NC(=O)[C@@H]3CSSC[C@@H](C(=O)N[C@@H](Cc4ccc(O)cc4)C(=O)N4CCC[C@H]4C(=O)N[C@@H](CCCNC(=N)N)C(=O)O)NC(=O)[C@H](CCCCN)NC(=O)[C@H](CSSC[C@H](NC(=O)[C@H](CCC(=O)O)NC(=O)[C@H](C(C)C)NC(=O)[C@H](CO)NC(=O)[C@H](C)NC(=O)[C@H](CNC(=N)N)NC1=O)C(=O)N[C@@H](CCCCN)C(=O)N[C@@H](CCC(N)=O)C(=O)N[C@@H](CCCCN)C(=O)N3)NC(=O)[C@H](CCCCN)NC(=O)[C@H](CCCCN)NC(=O)[C@H](CC(N)=O)NC(=O)[C@H](CCCC)NC2=O [Cpd No. 3] (H-P[Nle]E[Nle]RC[Agp]ASVECKQKCLAAIGSIFGKC[Nle]NKKCKCYPR-OH; disulfide 6-27, 12-32, 16-34)
IC50 (human Kv1.1; CHO cells, QPatch whole-cell, read-out: Potency IC50 Kv1.1): > 3000 nM | Selectivity ratio Kv1.1/Kv1.3 (human Kv1.1): >46000 | IC50 [3]: 0.13 nM | IC50 (human Kv1.2; CHO cells, QPatch whole-cell, read-out: Potency IC50 Kv1.2): 380 nM | Selectivity ratio Kv1.2/Kv1.3 (human Kv1.2): 6000 | IC50 (human Kv1.3): 0.064 nM | IC50 (human Kv1.6; CHO cells, QPatch whole-cell, read-out: Potency IC50 Kv1.6): > 3000 nM | Selectivity ratio Kv1.6/Kv1.3 (human Kv1.6): >46000

CCCC[C@H](NC(=O)[C@@H]1CCCN1)C(=O)N[C@@H](CC(=O)O)C(=O)N[C@@H](CCCC)C(=O)N[C@@H](CCCNC(=N)N)C(=O)N[C@H]1CSSC[C@@H]2NC(=O)[C@H](CCCCN)NC(=O)CNC(=O)[C@H](Cc3ccccc3)NC(=O)[C@H]([C@@H](C)CC)NC(=O)[C@H](CO)NC(=O)CNC(=O)[C@H]([C@@H](C)CC)NC(=O)[C@H](C)NC(=O)[C@H](CCCCN)NC(=O)[C@H](CC(C)C)NC(=O)[C@@H]3CSSC[C@@H](C(=O)N[C@@H](Cc4ccc(O)cc4)C(=O)N4CCC[C@H]4C(=O)N[C@@H](CCCNC(=N)N)C(N)=O)NC(=O)[C@H](CCCCN)NC(=O)[C@H](CSSC[C@H](NC(=O)[C@H](CCC(=O)O)NC(=O)[C@H](C(C)C)NC(=O)[C@H](CO)NC(=O)[C@H](C)NC(=O)[C@H](CO)NC1=O)C(=O)N[C@@H](CCCCN)C(=O)N[C@@H](CCC(N)=O)C(=O)N[C@@H](CCCCN)C(=O)N3)NC(=O)[C@H](CCCCN)NC(=O)[C@H](CCCCN)NC(=O)[C@H](CC(N)=O)NC(=O)[C@H](CCCC)NC2=O [compound 45] (H-P[Nle]D[Nle]RCSASVECKQKCLKAIGSIFGKC[Nle]NKKCKCYPR-NH2; disulfide 6-27, 12-32, 16-34)
IC50 (Rat whole blood): 0.98 nM | Selectivity ratio Kv1.1/Kv1.3 (human Kv1.1): >17100 | % inhibition of ear thickness (AUC of Δ ear thickness 0-48 hours) [1, 4]: 22.2 (+/−11.1) % | % inhibition of ear thickness (AUC of Δ ear thickness 0-48 hours) [1, 5]: 46.9 (+/−10.9) % and 27.7 (+/−11.5) % | % inhibition of ear thickness (AUC of Δ ear thickness 0-48 hours) ([1]; 100 nmol/kg SC 24 hrs prior to KLH ear challenge): 41.9 (+/−12.5) % | Selectivity ratio Kv1.2/Kv1.3 (human Kv1.2): 5362 | Selectivity ratio Kv1.6/Kv1.3 (human Kv1.6): >17100 | IC50 [2]: 0.03 nM

CCCC[C@H](NC(=O)[C@H](CC(=O)O)NC(=O)[C@H](CCCC)NC(=O)[C@@H](N)CO)C(=O)N[C@@H](CCCNC(=N)N)C(=O)N[C@H]1CSSC[C@@H]2NC(=O)[C@H](CCCCN)NC(=O)CNC(=O)[C@H](Cc3ccccc3)NC(=O)[C@H]([C@@H](C)CC)NC(=O)[C@H](CO)NC(=O)CNC(=O)[C@H]([C@@H](C)CC)NC(=O)[C@H](C)NC(=O)[C@H](CCCCN)NC(=O)[C@H](CC(C)C)NC(=O)[C@@H]3CSSC[C@@H](C(=O)N[C@@H](Cc4ccc(O)cc4)C(=O)N4CCC[C@H]4C(=O)N[C@@H](CCCNC(=N)N)C(N)=O)NC(=O)[C@H](CCCNC(=N)N)NC(=O)[C@H](CSSC[C@H](NC(=O)[C@H](CCC(=O)O)NC(=O)[C@H](C(C)C)NC(=O)[C@H](CO)NC(=O)[C@H](C)NC(=O)[C@H](CO)NC1=O)C(=O)N[C@@H](CCCCN)C(=O)N[C@@H](CCC(N)=O)C(=O)N[C@@H](CCCCN)C(=O)N3)NC(=O)[C@H](CCCCN)NC(=O)[C@H](CCCCN)NC(=O)[C@H](CC(N)=O)NC(=O)[C@H](CCSC)NC2=O [compound 75] (H-S[Nle]D[Nle]RCSASVECKQKCLKAIGSIFGKCMNKKCRCYPR-NH2; disulfide 6-27, 12-32, 16-34)
IC50 (Rat whole blood): 0.86 nM | IC50 (human Kv1.3): 0.13 nM

Reference: US20240182531A1, “KV1.3 Blockers” (priority 2021, published 2024)
